Patent publication US20240208957A1, “TRIAZINE DERIVATIVE AS REVERSIBLE AND IRREVERSIBLE COVALENT INHIBITORS OF PI3K” (UNIVERSITÄT BASEL, priority 2021, published 2024)
Like-named read-outs stand apart in the source and are kept apart here.

Key:
[1] = Intrinsic reactivity of the inhibitors with βME measured with HPLC; type: physicochemical; conditions: 1 mM inhibitor + 600 mM βME, n = 3, mean
Description: E˜I→EI • ii) off-target reactions with ubiquitous sulfhydryls (S) and other nucleophils present in physiologic environments such as cells and body fluids are driven by the intrinsic reactivity of the warhead that is defined by Kchem driving the conversion of S and I to form the sulfhydryl-adduct (SI) [table]

p110α (PI3Kα) = p110α (PI3Kα) (Homo sapiens, UniProt P42336); assay: LanthaScreen determination of kinetic constants (kinact, Ki) for p110α; type: binding; conditions: for Ki: dissociation constant of the first reversible binding, mean of 3; for kinact: read-out: kinact PI3Kα;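 as to all read-outs here: covalent inhibition constants for p110α come from LanthaScreen data, fitted globally by numerical integration in KinTek Global Kinetic Explorer software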
[2] = test system: pSer473 of PKB/Akt in SKOV3 cells; assay: In-Cell Western cellular PI3K signaling, pSer473 of PKB/Akt in SKOV3 cells; type: cell-based; conditions: Homo sapiens
Experimental: Protein phosphorylation was detected as follows: pSer473 of PKB/Akt with rabbit polyclonal antibody from Cell Signaling Technology (CST) (#4058) by In-Cell Western assays, where 1.2×10^4 SKOV3 cells/well in 96-well plates were plated (Cell Carrier, PerkinElmer) for 24 hours (37° C., 5% CO2), as described in Ref.^21.

[3] = mean of 3 independent measurements, global fitting with KinTek
[4] = SK-OV-3, SKOV3 cells, mean of 2 or 3 independent measurements, read-out: IC50 pPKB (S473) SKOV3

p110α (PI3Kα), sequence (P42336 whole entry): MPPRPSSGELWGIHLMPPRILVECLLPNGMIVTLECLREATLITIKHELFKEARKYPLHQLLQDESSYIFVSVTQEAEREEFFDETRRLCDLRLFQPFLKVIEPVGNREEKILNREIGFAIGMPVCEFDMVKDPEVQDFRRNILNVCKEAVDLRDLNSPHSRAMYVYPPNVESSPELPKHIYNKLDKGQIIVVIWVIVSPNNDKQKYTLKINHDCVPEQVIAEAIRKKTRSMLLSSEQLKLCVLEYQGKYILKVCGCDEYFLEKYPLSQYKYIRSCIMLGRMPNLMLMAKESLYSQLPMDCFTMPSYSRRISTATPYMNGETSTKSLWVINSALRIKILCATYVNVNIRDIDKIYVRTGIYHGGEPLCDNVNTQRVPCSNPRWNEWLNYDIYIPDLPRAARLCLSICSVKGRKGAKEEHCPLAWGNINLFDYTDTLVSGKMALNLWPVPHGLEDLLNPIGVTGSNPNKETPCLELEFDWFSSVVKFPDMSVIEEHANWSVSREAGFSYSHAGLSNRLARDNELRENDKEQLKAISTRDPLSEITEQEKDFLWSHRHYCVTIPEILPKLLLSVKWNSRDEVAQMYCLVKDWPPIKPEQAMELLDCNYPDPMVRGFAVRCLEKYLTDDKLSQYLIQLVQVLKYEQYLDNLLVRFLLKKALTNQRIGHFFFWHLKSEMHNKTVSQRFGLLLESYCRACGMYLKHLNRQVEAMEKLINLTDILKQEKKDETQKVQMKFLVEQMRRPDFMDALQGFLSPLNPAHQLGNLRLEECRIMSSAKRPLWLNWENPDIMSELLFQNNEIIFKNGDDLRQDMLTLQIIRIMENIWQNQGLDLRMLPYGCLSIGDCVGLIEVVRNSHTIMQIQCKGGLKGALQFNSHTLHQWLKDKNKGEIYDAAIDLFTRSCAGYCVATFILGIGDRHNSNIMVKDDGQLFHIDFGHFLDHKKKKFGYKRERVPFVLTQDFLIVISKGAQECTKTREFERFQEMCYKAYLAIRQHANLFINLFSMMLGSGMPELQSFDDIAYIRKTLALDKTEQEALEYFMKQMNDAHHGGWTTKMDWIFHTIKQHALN
p110α (PI3Kα), sequence (P27986 whole entry partner): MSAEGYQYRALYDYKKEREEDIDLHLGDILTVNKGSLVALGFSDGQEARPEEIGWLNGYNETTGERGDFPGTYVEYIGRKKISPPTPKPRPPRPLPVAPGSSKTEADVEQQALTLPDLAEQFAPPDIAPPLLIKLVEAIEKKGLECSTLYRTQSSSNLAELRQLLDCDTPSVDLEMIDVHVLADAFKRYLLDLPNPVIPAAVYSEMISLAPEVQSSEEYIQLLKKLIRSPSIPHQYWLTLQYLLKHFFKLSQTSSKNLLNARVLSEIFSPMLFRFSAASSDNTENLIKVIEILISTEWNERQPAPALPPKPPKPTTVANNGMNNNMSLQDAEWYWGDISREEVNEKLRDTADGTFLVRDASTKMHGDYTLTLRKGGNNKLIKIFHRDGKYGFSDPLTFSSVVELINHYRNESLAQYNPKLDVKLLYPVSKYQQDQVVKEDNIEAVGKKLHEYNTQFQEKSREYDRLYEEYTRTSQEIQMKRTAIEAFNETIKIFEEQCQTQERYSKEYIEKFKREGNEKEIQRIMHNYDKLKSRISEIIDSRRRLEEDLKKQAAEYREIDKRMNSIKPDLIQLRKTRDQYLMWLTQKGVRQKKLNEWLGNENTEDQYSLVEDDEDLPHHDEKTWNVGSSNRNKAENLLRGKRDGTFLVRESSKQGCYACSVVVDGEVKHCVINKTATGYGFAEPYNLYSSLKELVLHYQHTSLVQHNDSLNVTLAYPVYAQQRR

kinact/KI (p110α (PI3Kα); PI3Kα, read-out: kinact/Ki) | Ki (p110α (PI3Kα)) | kinact (p110α (PI3Kα); [3]) | IC50 [2, 4] | Compound | kchem [1] | kinact/KI (p110α (PI3Kα)) | kinact (p110α (PI3Kα)) | IC50 ([2]; SK-OV-3, read-out: IC50 pPKB (S473) SKOV3)
151000 M⁻¹ s⁻¹ | 3.63 nM | 0.000547 s⁻¹ | 133 nM | C=CC(=O)N1CCC[C@H](C(=O)NCC(=O)N2CCN(c3nc(-c4cnc(N)nc4C(F)F)nc(N4CCOCC4)n3)CC2)C1 [Compound 15, (S)-1-acryloyl-N-(2-(4-(4-(2-amino-4-(difluoromethyl)pyrimidin-5-yl)-6-morpholino-1,3,5-triazin-2-yl)piperazin-1-yl)-2-oxoethyl)piperidine-3-carboxamide] | 0.00073 M⁻¹ s⁻¹ | – | – | –
914000 M⁻¹ s⁻¹ | 3.89 nM | 0.00356 s⁻¹ | 27.5 nM | C=CC(=O)N1CCC[C@@H](C(=O)NCC(=O)N2CCN(c3nc(-c4cnc(N)nc4C(F)F)nc(N4CCOCC4)n3)CC2)C1 [Compound 16, (R)-1-acryloyl-N-(2-(4-(4-(2-amino-4-(difluoromethyl)pyrimidin-5-yl)-6-morpholino-1,3,5-triazin-2-yl)piperazin-1-yl)-2-oxoethyl)piperidine-3-carboxamide] | 0.00076 M⁻¹ s⁻¹ | – | – | –
32700 M⁻¹ s⁻¹ | 7.66 nM | 0.000251 s⁻¹ | 85.7 nM | C=CC(=O)N1CCC[C@H](C(=O)N(C)CC(=O)N2CCN(c3nc(-c4cnc(N)nc4C(F)F)nc(N4CCOCC4)n3)CC2)C1 [Compound 17, (S)-1-acryloyl-N-(2-(4-(4-(2-amino-4-(difluoromethyl)pyrimidin-5-yl)-6-morpholino-1,3,5-triazin-2-yl)piperazin-1-yl)-2-oxoethyl)-N-methylpiperidine-3-carboxamide] | 0.00068 M⁻¹ s⁻¹ | – | – | –
212000 M⁻¹ s⁻¹ | 3.06 nM | 0.00065 s⁻¹ | 59.3 nM | C=CC(=O)N1CCCC[C@H]1C(=O)NCC(=O)N1CCN(c2nc(-c3cnc(N)nc3C(F)F)nc(N3CCOCC3)n2)CC1 [Compound 20, (S)-1-acryloyl-N-(2-(4-(4-(2-amino-4-(difluoromethyl)pyrimidin-5-yl)-6-morpholino-1,3,5-triazin-2-yl)piperazin-1-yl)-2-oxoethyl)piperidine-2-carboxamide] | 0.00444 M⁻¹ s⁻¹ | – | – | –
227000 M⁻¹ s⁻¹ | 3.85 nM | 0.000875 s⁻¹ | 89.8 nM | C=CC(=O)N1CCCC[C@@H]1C(=O)NCC(=O)N1CCN(c2nc(-c3cnc(N)nc3C(F)F)nc(N3CCOCC3)n2)CC1 [Compound 21, (R)-1-acryloyl-N-(2-(4-(4-(2-amino-4-(difluoromethyl)pyrimidin-5-yl)-6-morpholino-1,3,5-triazin-2-yl)piperazin-1-yl)-2-oxoethyl)piperidine-2-carboxamide] | 0.00469 M⁻¹ s⁻¹ | – | – | –
54000 M⁻¹ s⁻¹ | 5.74 nM | 0.000309 s⁻¹ | 29.3 nM | C=CC(=O)N1CCCC[C@H]1C(=O)N(C)CC(=O)N1CCN(c2nc(-c3cnc(N)nc3C(F)F)nc(N3CCOCC3)n2)CC1 [Compound 22, (S)-1-acryloyl-N-(2-(4-(4-(2-amino-4-(difluoromethyl)pyrimidin-5-yl)-6-morpholino-1,3,5-triazin-2-yl)piperazin-1-yl)-2-oxoethyl)-N-methylpiperidine-2-carboxamide] | 0.00094 M⁻¹ s⁻¹ | – | – | –
27200 M⁻¹ s⁻¹ | 8.47 nM | 0.000231 s⁻¹ | 60.5 nM | C=CC(=O)N1CCCC[C@@H]1C(=O)N(C)CC(=O)N1CCN(c2nc(-c3cnc(N)nc3C(F)F)nc(N3CCOCC3)n2)CC1 [Compound 23, (R)-1-acryloyl-N-(2-(4-(4-(2-amino-4-(difluoromethyl)pyrimidin-5-yl)-6-morpholino-1,3,5-triazin-2-yl)piperazin-1-yl)-2-oxoethyl)-N-methylpiperidine-2-carboxamide] | 0.001 M⁻¹ s⁻¹ | – | – | –
311000 M⁻¹ s⁻¹ | 8.34 nM | 0.0026 s⁻¹ | 94 nM | C=CC(=O)N1CC[C@H](C(=O)NCC(=O)N2CCN(c3nc(-c4cnc(N)nc4C(F)F)nc(N4CCOCC4)n3)CC2)C1 [Compound 24, (S)-1-acryloyl-N-(2-(4-(4-(2-amino-4-(difluoromethyl)pyrimidin-5-yl)-6-morpholino-1,3,5-triazin-2-yl)piperazin-1-yl)-2-oxoethyl)pyrrolidine-3-carboxamide] | 0.00059 M⁻¹ s⁻¹ | – | – | –
– | – | – | – | C=CC(=O)N1CCC[C@H]1C(=O)N(C)CC(=O)N1CCN(c2nc(-c3cnc(N)nc3C(F)F)nc(N3CCOCC3)n2)CC1 [Compound 30, (S)-1-acryloyl-N-(2-(4-(4-(2-amino-4-(difluoromethyl)pyrimidin-5-yl)-6-morpholino-1,3,5-triazin-2-yl)piperazin-1-yl)-2-oxoethyl)-N-methylpyrrolidine-2-carboxamide] | 0.00058 M⁻¹ s⁻¹ | – | – | –
– | – | – | 447 nM | C=CC(=O)N1CCC[C@@H]1C(=O)N(C)CC(=O)N1CCN(c2nc(-c3cnc(N)nc3C(F)F)nc(N3CCOCC3)n2)CC1 [Compound 31, (R)-1-acryloyl-N-(2-(4-(4-(2-amino-4-(difluoromethyl)pyrimidin-5-yl)-6-morpholino-1,3,5-triazin-2-yl)piperazin-1-yl)-2-oxoethyl)-N-methylpyrrolidine-2-carboxamide] | 0.00052 M⁻¹ s⁻¹ | – | – | –
– | – | – | 175 nM | C=CC(=O)N1CC(C(=O)NCC(=O)N2CCN(c3nc(-c4cnc(N)nc4C(F)F)nc(N4CCOCC4)n3)CC2)C1 [Compound 32, 1-acryloyl-N-(2-(4-(4-(2-amino-4-(difluoromethyl)pyrimidin-5-yl)-6-morpholino-1,3,5-triazin-2-yl)piperazin-1-yl)-2-oxoethyl)azetidine-3-carboxamide] | 0.00517 M⁻¹ s⁻¹ | – | – | –
– | – | – | 196 nM | C=CC(=O)N1CC(C(=O)N(C)CCC(=O)N2CCN(c3nc(-c4cnc(N)nc4C(F)F)nc(N4CCOCC4)n3)CC2)C1 [Compound 37, 1-acryloyl-N-(3-(4-(4-(2-amino-4-(difluoromethyl)pyrimidin-5-yl)-6-morpholino-1,3,5-triazin-2-yl)piperazin-1-yl)-3-oxopropyl)-N-methylazetidine-3-carboxamide] | 0.00636 M⁻¹ s⁻¹ | – | – | –
– | – | – | 82 nM | C=CC(=O)N1CCC(C(=O)NCC(=O)N2CCN(c3nc(-c4cnc(N)nc4C(F)F)nc(N4CCOCC4)n3)CC2)CC1 [Compound 44, 1-acryloyl-N-(2-(4-(4-(2-amino-4-(difluoromethyl)pyrimidin-5-yl)-6-morpholino-1,3,5-triazin-2-yl)piperazin-1-yl)-2-oxoethyl)piperidine-4-carboxamide] | 0.00037 M⁻¹ s⁻¹ | – | – | –
– | – | – | 86 nM | C=CC(=O)N1CCC(C(=O)N(C)CC(=O)N2CCN(c3nc(-c4cnc(N)nc4C(F)F)nc(N4CCOCC4)n3)CC2)CC1 [Compound 45, 1-acryloyl-N-(2-(4-(4-(2-amino-4-(difluoromethyl)pyrimidin-5-yl)-6-morpholino-1,3,5-triazin-2-yl)piperazin-1-yl)-2-oxoethyl)-N-methylpiperidine-4-carboxamide] | 0.000354 M⁻¹ s⁻¹ | – | – | –

Compound | kinact/KI (p110α (PI3Kα); PI3Kα, read-out: kinact/Ki) | Ki (p110α (PI3Kα)) | kinact (p110α (PI3Kα); [3]) | IC50 [2, 4] | kchem [1] | kinact/KI (p110α (PI3Kα)) | kinact (p110α (PI3Kα)) | IC50 ([2]; SK-OV-3, read-out: IC50 pPKB (S473) SKOV3)
C=CC(=O)N1CCC[C@@H](C(=O)N(C)CC(=O)N2CCN(c3nc(-c4cnc(N)nc4C(F)F)nc(N4CCOCC4)n3)CC2)C1 [Compound 18, (R)-1-acryloyl-N-(2-(4-(4-(2-amino-4-(difluoromethyl)pyrimidin-5-yl)-6-morpholino-1,3,5-triazin-2-yl)piperazin-1-yl)-2-oxoethyl)-N-methylpiperidine-3-carboxamide] | – | 6.08 nM | – | – | 0.000704 M⁻¹ s⁻¹ | 711000 M⁻¹ s⁻¹ | 0.00433 s⁻¹ | 15.3 nM
